Results: paper PMC9296983, “Synthesis and HDAC inhibitory activity of pyrimidine-based hydroxamic acids” (Beilstein Journal of Organic Chemistry, 2022)

What was measured:
HDAC8 = molecular target: T1, HDAC8 (Homo sapiens, UniProt Q9BY41); test: HDAC enzyme activity assay (fluorogenic, Boc-Lys(trifluoroacetyl)-AMC substrate), HDAC8; type: biochemical; settings: recombinant HDAC8; BOC-LYS-(TFA)-AMC as substrate, 100 mM TRIS, 300 mM KCl, pH 8.0 buffer, 30 °C
T1 construct: made in house
T1 sequence (Q9BY41 1-377): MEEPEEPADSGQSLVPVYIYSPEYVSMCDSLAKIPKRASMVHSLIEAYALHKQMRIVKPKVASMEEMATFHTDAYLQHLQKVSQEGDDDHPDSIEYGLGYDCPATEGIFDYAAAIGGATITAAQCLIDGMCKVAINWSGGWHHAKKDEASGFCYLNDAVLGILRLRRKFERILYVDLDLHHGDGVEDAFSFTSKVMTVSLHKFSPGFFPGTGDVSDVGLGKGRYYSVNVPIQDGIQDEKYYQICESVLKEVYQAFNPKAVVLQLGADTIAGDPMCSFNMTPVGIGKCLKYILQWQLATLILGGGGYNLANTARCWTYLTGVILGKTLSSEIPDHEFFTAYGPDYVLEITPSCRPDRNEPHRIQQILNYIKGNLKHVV
Description: (§1) Compounds 12–18 and 25–31 were tested as inhibitors of HDAC4 and HDAC8 isoforms according to the procedures described previously. […]. […]
(§2) HDAC enzyme activity assay
Recombinant HDAC4 and 8 were produced as described in [3]. […]
HDAC in a black 96-well microtiter half -area plate (Greiner) for 60 min at 30 °C. Subsequentl y the reaction was started by the addition of 20 μM Boc -Lys(trifluoroacetyl) -AMC (Bachem) as a substrate.
(§3) After incubation for 60 min at 30 °C, the reaction was stopped by the addition of 1.7 μM SATFMK.
(§4) The deacetylated substrate was transformed into a flu orescent product by the addition of 0.4 mg/m L trypsin (Applichem). The release of AMC was followed in a microplate reader (PheraStar Plus, BMG Labtech) at 450 nm (λ Ex = 350 nm) and correlated to enzyme activity. Dose–response curves were produced with GraphPad Prism and fitted to a four parameters logistic function to obtain IC50 values […]
(§5) in which EA is the enzyme activity at a given inhibitor concentration x; Emax and E0 are the enzyme activities determined at zero and complete inhibition, respectively; IC50 represents the inhibitor concentration at which half the enzyme molecules are inhibited; h is the slope of the curve. […]
(§6) (1 picture or pasted object on this page, not shown here)

HDAC4 = molecular target: T2, HDAC4 (Homo sapiens, UniProt P56524); test: HDAC enzyme activity assay (fluorogenic, Boc-Lys(trifluoroacetyl)-AMC substrate), HDAC4; type: biochemical; settings: recombinant HDAC4; BOC-LYS-(TFA)-AMC as substrate, 100 mM TRIS, 300 mM KCl, pH 8.0 buffer, 30 °C
T2 construct: made in house
T2 sequence (P56524 whole entry, species assumed): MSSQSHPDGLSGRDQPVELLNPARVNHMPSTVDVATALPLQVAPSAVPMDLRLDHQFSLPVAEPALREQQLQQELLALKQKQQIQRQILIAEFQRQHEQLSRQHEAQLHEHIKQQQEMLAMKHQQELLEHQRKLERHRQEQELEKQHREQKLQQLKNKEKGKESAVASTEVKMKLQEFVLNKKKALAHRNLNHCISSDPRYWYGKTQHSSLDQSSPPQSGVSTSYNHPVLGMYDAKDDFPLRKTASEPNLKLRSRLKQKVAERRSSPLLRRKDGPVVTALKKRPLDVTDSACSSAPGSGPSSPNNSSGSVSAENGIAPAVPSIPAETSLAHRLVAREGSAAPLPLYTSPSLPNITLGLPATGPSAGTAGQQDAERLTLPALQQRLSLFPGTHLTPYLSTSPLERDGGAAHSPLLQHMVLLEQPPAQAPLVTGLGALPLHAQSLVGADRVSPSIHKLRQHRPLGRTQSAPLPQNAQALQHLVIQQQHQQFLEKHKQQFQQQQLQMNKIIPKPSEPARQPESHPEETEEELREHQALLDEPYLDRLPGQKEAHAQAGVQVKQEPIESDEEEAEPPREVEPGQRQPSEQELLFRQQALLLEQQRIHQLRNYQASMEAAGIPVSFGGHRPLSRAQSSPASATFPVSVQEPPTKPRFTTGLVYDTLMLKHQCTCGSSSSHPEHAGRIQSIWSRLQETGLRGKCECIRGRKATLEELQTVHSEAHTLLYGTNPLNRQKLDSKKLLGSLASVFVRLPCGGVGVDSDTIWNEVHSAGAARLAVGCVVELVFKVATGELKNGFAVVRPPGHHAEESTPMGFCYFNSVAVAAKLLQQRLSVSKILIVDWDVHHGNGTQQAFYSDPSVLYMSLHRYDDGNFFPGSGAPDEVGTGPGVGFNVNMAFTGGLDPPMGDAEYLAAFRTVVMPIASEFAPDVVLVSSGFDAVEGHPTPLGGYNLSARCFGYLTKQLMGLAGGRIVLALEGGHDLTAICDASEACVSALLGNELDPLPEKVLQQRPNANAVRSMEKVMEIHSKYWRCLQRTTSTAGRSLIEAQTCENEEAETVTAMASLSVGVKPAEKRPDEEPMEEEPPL
Description: as §1, §2
Recombinant HDAC4 and 8 were produced as described in [3]. Serial dilutions of the inhibitor in the assay buffer (25 mM Tris -HCl, pH 8.0, 75 mM KCl, 0.001 % Pluronic F-127) were incubated with HDAC in a black 96-well microtiter half -area plate (Greiner) for 60 min at 30 °C. Subsequentl y the reaction was started by the addition of 20 μM Boc -Lys(trifluoroacetyl) -AMC (Bachem) as a substrate.
as §3, §4, §5, §6

Row | IC50 (HDAC8) | melting point | IC50 (HDAC4) | SMILES
1 | 15 µM | 177 to 179 °C | – | C=CCNc1nc(C)cc(OCC(=O)NO)n1 [compound 14]
2 | 14 µM | 168 to 170 °C | – | Cc1cc(OCC(=O)NO)nc(NCc2ccccc2)n1 [compound 15]
3 | 35 µM | 192 to 194 °C | – | Cc1cc(OCC(=O)NO)nc(N(C)C)n1 [compound 16]
4 | 2.05 µM | 112 to 113 °C | > 50 µM | CSc1nc(C)cc(OCCCCCC(=O)NO)n1 [compound 26]
5 | 28 µM | 182 to 184 °C | 38 µM | CSc1nc(C)cc(OCC(=O)NO)n1 [compound 12]
6 | 60 µM | 190 to 191 °C (dec.) | – | Cc1cc(OCC(=O)NO)nc(O)n1 [compound 18]
7 | 5.65 µM | 150 to 151 °C | > 50 µM | CSc1nc(C)cc(OCCCC(=O)NO)n1 [compound 25]
8 | 13 µM | 178 to 180 °C | – | Cc1cc(OCC(=O)NO)nc(N2CCCC2)n1 [compound 17]
9 | 1.2 µM | – | 16.6 µM | CCCc1c(C)nc(SC)nc1OCCCCCC(=O)NO [compound 29, N-hydroxy-6-[6-methyl-2-(methylthio)-5-propylpyrimidin-4-yloxy]hexanamide]
10 | 2.4 µM | 125 to 127 °C | > 35 µM | CCCc1c(C)nc(SC)nc1OCCCC(=O)NO [compound 28]
11 | > 35 µM | 185 to 187 °C | > 35 µM | CCCc1c(C)nc(SC)n(CC(=O)NO)c1=O [compound 30, N-Hydroxy-[6-methyl-2-(methylthio) -4-oxo-5-propylpyrimidin-3(4H)-yl]acetamide]
12 | > 35 µM | 133 to 135 °C | > 35 µM | CCCc1c(C)nc(SC)n(CCCC(=O)NO)c1=O [compound 31, N-Hydroxy-4-[6-methyl-2-(methylthio) -4-oxo-5-propylpyrimidin-3(4H)-yl]butanamide]
13 | 1.4 µM | 144 to 146 °C | 38 µM | CCCc1c(C)nc(SC)nc1OCC(=O)NO [compound 27]
14 | 13 µM | 175 to 176 °C | – | CCSc1nc(C)cc(OCC(=O)NO)n1 [compound 13]
